From the NIST ThermoML archive (doi:10.1021/je300945r)

F/C=C/C(F)(F)F [trans-1,3,3,3-tetrafluoropropene]
Conditions | mass density [kg/m3]
343.15 K, 9736 kPa, Liquid, Vibrating tube method | 1068.9
343.15 K, 10753 kPa, Liquid, Vibrating tube method | 1076.1
343.15 K, 11770 kPa, Liquid, Vibrating tube method | 1082.8
343.15 K, 12788 kPa, Liquid, Vibrating tube method | 1089.2
343.15 K, 15829 kPa, Liquid, Vibrating tube method | 1106.7
343.15 K, 17849 kPa, Liquid, Vibrating tube method | 1117.1
343.15 K, 18851 kPa, Liquid, Vibrating tube method | 1122
343.15 K, 19867 kPa, Liquid, Vibrating tube method | 1126.8
343.15 K, 20877 kPa, Liquid, Vibrating tube method | 1131.4
343.15 K, 21883 kPa, Liquid, Vibrating tube method | 1135.8
343.15 K, 22905 kPa, Liquid, Vibrating tube method | 1140.2
343.15 K, 23913 kPa, Liquid, Vibrating tube method | 1144.3
343.15 K, 24913 kPa, Liquid, Vibrating tube method | 1148.4
343.15 K, 25929 kPa, Liquid, Vibrating tube method | 1152.4
343.15 K, 26933 kPa, Liquid, Vibrating tube method | 1156.2
343.15 K, 27938 kPa, Liquid, Vibrating tube method | 1160
343.15 K, 28947 kPa, Liquid, Vibrating tube method | 1163.6
343.15 K, 29953 kPa, Liquid, Vibrating tube method | 1167.2
343.15 K, 30968 kPa, Liquid, Vibrating tube method | 1170.7
343.15 K, 31987 kPa, Liquid, Vibrating tube method | 1174.2
343.15 K, 32989 kPa, Liquid, Vibrating tube method | 1177.5
343.15 K, 33994 kPa, Liquid, Vibrating tube method | 1180.8
343.16 K, 13798 kPa, Liquid, Vibrating tube method | 1095.3
343.16 K, 14817 kPa, Liquid, Vibrating tube method | 1101.1
343.16 K, 16838 kPa, Liquid, Vibrating tube method | 1112
352.95 K, 306.8 kPa, Gas, isochoric method | 12.346
352.96 K, 306.9 kPa, Gas, isochoric method | 12.346
352.99 K, 522.8 kPa, Gas, isochoric method | 21.739
353 K, 191.9 kPa, Gas, isochoric method | 7.634
353 K, 672 kPa, Gas, isochoric method | 28.571
353 K, 672.1 kPa, Gas, isochoric method | 28.571
353 K, 867.3 kPa, Gas, isochoric method | 38.462
353.01 K, 84.1 kPa, Gas, isochoric method | 3.3
353.01 K, 191.9 kPa, Gas, isochoric method | 7.634
353.01 K, 458.4 kPa, Gas, isochoric method | 19.231
353.01 K, 739.8 kPa, Gas, isochoric method | 32.258
353.02 K, 84.1 kPa, Gas, isochoric method | 3.3
353.02 K, 739.8 kPa, Gas, isochoric method | 32.258
353.03 K, 950.8 kPa, Gas, isochoric method | 43.478
353.14 K, 30961 kPa, Liquid, Vibrating tube method | 1149
353.15 K, 2236 kPa, Liquid, Vibrating tube method | 936.2
353.15 K, 9793 kPa, Liquid, Vibrating tube method | 1035.4
353.15 K, 12814 kPa, Liquid, Vibrating tube method | 1058.8
353.15 K, 15825 kPa, Liquid, Vibrating tube method | 1078.4
353.15 K, 16834 kPa, Liquid, Vibrating tube method | 1084.4
353.15 K, 18850 kPa, Liquid, Vibrating tube method | 1095.7
353.15 K, 19865 kPa, Liquid, Vibrating tube method | 1101
353.15 K, 21883 kPa, Liquid, Vibrating tube method | 1111
353.15 K, 22889 kPa, Liquid, Vibrating tube method | 1115.7
353.15 K, 24907 kPa, Liquid, Vibrating tube method | 1124.7
353.15 K, 25928 kPa, Liquid, Vibrating tube method | 1129.2
353.15 K, 26934 kPa, Liquid, Vibrating tube method | 1133.3
353.15 K, 27950 kPa, Liquid, Vibrating tube method | 1137.5
353.15 K, 28953 kPa, Liquid, Vibrating tube method | 1141.4
353.15 K, 29957 kPa, Liquid, Vibrating tube method | 1145.2
353.15 K, 31977 kPa, Liquid, Vibrating tube method | 1152.7
353.15 K, 32983 kPa, Liquid, Vibrating tube method | 1156.3
353.15 K, 33998 kPa, Liquid, Vibrating tube method | 1159.9
353.16 K, 2681 kPa, Liquid, Vibrating tube method | 945.9
353.16 K, 3704 kPa, Liquid, Vibrating tube method | 964.9
353.16 K, 4723 kPa, Liquid, Vibrating tube method | 980.5
353.16 K, 5740 kPa, Liquid, Vibrating tube method | 994
353.16 K, 6749 kPa, Liquid, Vibrating tube method | 1005.9
353.16 K, 7775 kPa, Liquid, Vibrating tube method | 1016.7
353.16 K, 8789 kPa, Liquid, Vibrating tube method | 1026.5
353.16 K, 10794 kPa, Liquid, Vibrating tube method | 1043.6
353.16 K, 11799 kPa, Liquid, Vibrating tube method | 1051.4
353.16 K, 13815 kPa, Liquid, Vibrating tube method | 1065.7
353.16 K, 14816 kPa, Liquid, Vibrating tube method | 1072.2
353.16 K, 17837 kPa, Liquid, Vibrating tube method | 1090.2
353.16 K, 20878 kPa, Liquid, Vibrating tube method | 1106.1
353.16 K, 23896 kPa, Liquid, Vibrating tube method | 1120.3
362.94 K, 86.6 kPa, Gas, isochoric method | 3.3
362.94 K, 316.2 kPa, Gas, isochoric method | 12.346
362.94 K, 316.3 kPa, Gas, isochoric method | 12.346
362.95 K, 473.2 kPa, Gas, isochoric method | 18.868
362.96 K, 197.6 kPa, Gas, isochoric method | 7.634
362.96 K, 473.2 kPa, Gas, isochoric method | 18.868
362.96 K, 540 kPa, Gas, isochoric method | 21.739
362.96 K, 695.3 kPa, Gas, isochoric method | 28.571
362.97 K, 899.7 kPa, Gas, isochoric method | 38.462
362.97 K, 987.6 kPa, Gas, isochoric method | 43.478
362.98 K, 766.3 kPa, Gas, isochoric method | 32.258
362.98 K, 987.6 kPa, Gas, isochoric method | 43.478
372.89 K, 557 kPa, Gas, isochoric method | 21.739
372.9 K, 89.1 kPa, Gas, isochoric method | 3.3
372.9 K, 325.6 kPa, Gas, isochoric method | 12.346
372.9 K, 557 kPa, Gas, isochoric method | 21.739
372.91 K, 203.3 kPa, Gas, isochoric method | 7.634
372.92 K, 792.3 kPa, Gas, isochoric method | 32.258
372.93 K, 488 kPa, Gas, isochoric method | 18.868
372.95 K, 1023.8 kPa, Gas, isochoric method | 43.478
372.95 K, 1023.9 kPa, Gas, isochoric method | 43.478
372.96 K, 931.7 kPa, Gas, isochoric method | 38.462
372.97 K, 718.5 kPa, Gas, isochoric method | 28.571
372.97 K, 718.6 kPa, Gas, isochoric method | 28.571
